Test results: patent publication US20230026611A1, “ARYL HETEROCYCLIC COMPOUNDS AS Kv1.3 POTASSIUM SHAKER CHANNEL BLOCKERS” (D. E. Shaw Research, LLC, priority 2019, published 2023)

Columns and labels:
[1] = target: T1, Kv1.3 potassium channel (Homo sapiens, UniProt P22001); experiment: Kv1.3 potassium channel blocker activity, automated whole-cell patch clamp (Patchliner) in CHO-K1 cells stably expressing Kv1.3; assay type: cell-based; conditions: CHO-K1 cells stably expressing Kv1.3; patch clamp, current inhibition; read-out: Kv1.3 IC50
T1 construct: expressed in transfected cells
T1 sequence (P22001 whole entry): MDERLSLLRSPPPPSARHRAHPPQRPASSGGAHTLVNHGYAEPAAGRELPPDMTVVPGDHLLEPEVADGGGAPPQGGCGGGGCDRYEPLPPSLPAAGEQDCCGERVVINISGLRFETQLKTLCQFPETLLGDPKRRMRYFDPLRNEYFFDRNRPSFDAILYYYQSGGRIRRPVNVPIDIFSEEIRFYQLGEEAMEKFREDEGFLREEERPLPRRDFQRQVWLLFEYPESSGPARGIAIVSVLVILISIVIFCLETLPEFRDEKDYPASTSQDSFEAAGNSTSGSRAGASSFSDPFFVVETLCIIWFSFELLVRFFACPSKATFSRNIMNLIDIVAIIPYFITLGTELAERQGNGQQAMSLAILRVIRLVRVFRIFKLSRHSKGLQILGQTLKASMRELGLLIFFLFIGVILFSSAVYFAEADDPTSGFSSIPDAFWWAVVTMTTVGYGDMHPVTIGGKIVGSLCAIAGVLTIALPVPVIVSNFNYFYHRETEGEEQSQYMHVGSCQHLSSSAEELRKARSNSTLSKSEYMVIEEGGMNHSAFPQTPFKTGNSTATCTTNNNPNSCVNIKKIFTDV
Method: Example 82. Evaluation of Kv1.3 potassium channel blocker activities
This assay is used to evaluate the disclosed compounds' activities as Kv1.3 potassium channel blockers.
CHO-K1 cells stably expressing Kv1.3 were grown in DMEM containing 10% heat-inactivated FBS, 1 mM sodium pyruvate, 2 mM L-glutamine, and G418 (500 μg/ml).
All compounds were dissolved in DMSO at 30 mM.
The currents were evoked by applying 100 ms depolarizing pulses from −90 mV (holding potential) to +40 mV were applied with 0.1 Hz frequency. […] 10-second breaks were used between pulse trains (see Table A below).
Data were sampled at 10 kHz without filtering. Passive leak currents were subtracted online using a P/4 procedure (HEKA Elektronik Dr. Schulze GmbH). […] Total compound incubation time before the next pulse train was not longer than 10 seconds. Peak current inhibition was observed during compound equilibration.

[2] = target: hERG channel (Homo sapiens, UniProt Q12809); experiment: hERG electrophysiology, automated whole-cell patch clamp (Patchliner) in CHO-K1 cells stably expressing hERG
Sequence of hERG channel (Q12809 whole entry): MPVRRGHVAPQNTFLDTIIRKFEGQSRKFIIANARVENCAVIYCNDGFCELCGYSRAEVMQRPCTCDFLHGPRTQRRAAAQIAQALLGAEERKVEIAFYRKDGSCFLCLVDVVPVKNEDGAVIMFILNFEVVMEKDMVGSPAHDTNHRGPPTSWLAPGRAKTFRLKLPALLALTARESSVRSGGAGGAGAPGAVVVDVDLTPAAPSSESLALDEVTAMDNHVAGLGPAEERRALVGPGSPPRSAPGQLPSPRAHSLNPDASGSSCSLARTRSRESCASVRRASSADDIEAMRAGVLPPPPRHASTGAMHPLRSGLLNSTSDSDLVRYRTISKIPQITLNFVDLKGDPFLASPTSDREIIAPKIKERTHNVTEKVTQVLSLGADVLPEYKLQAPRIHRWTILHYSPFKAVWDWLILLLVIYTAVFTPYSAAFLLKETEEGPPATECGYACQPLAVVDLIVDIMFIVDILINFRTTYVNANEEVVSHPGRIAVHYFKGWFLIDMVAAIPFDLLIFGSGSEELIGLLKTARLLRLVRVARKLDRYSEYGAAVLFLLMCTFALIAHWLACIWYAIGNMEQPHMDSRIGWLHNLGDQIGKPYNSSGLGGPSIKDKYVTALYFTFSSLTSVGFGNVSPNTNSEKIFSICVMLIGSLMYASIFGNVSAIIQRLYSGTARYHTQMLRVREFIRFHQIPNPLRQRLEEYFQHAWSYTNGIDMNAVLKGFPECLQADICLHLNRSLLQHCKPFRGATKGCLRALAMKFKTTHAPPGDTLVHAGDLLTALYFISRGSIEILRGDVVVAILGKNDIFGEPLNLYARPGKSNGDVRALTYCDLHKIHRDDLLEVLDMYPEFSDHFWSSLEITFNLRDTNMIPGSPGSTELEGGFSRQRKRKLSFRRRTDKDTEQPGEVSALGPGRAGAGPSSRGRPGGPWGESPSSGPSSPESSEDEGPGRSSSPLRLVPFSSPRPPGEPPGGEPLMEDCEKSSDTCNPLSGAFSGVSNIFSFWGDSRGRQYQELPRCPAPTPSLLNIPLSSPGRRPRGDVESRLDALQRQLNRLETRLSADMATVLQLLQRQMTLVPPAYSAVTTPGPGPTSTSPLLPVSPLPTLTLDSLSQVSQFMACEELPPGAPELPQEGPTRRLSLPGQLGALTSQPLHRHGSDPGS
Method: Evaluation of hERG Activities
This assay is used to evaluate the disclosed compounds's inhibition activities against the hERG channel.
CHO-K1 cells stably expressing hERG were grown in Ham's F-12 Medium with glutamine containing 10% heat-inactivated FBS, 1% penicillin/streptomycin, hygromycin (100 μg/ml) and G418 (100 μg/ml). Cells were grown in culture flasks at 37° C. in a 5% CO2-humidified incubator.
The cells were bathed in an extracellular solution containing 140 mM NaCl, 4 mM KCl, 2 mM CaCl2), 1 mM MgCl2, 5 mM Glucose, 10 mM HEPES; pH adjusted to 7.4 with NaOH; 295-305 mOsm. The internal solution contained 50 mM KCl, 10 mM NaCl, 60 mM KF, 20 mM EGTA, 10 mM HEPES; pH adjusted to 7.2 with KOH; 285 mOsm. All compounds were dissolved in DMSO at 30 mM. Compound stock solutions were freshly diluted with external solution to concentrations of 30 nM, 100 nM, 300 nM, 1 μM, 3 μM, 10 μM, 30 μM and 100 μM. The highest content of DMSO (0.3%) was present in 100 μM.
The voltage protocol (see Table B) was designed to simulate voltage changes during a cardiac action potential with a 300 ms depolarization to +20 mV (analogous to the plateau phase of the cardiac action potential), a repolarization for 300 ms to −50 mV (inducing a tail current) and a final step to the holding potential of −80 mV. The pulse frequency was 0.3 Hz. Control (compound-free) and compound pulse trains for each compound concentration applied contained 70 pulses.
Whole-cell current recordings and compound application were enabled by means of an automated patch clamp platform Patchliner (Nanion). EPC 10 patch clamp amplifier (HEKA) along with Patchmaster software (HEKA Elektronik Dr. Schulze GmbH) was used for data acquisition. Data were sampled at 10 kHz without filtering. Increasing compound concentrations were applied consecutively to the same cell without washouts in between.
AUC and PEAK values were obtained with Patchmaster (HEKA Elektronik Dr. Schulze GmbH). To determine IC50 the last single pulse in the pulse train corresponding to a given compound concentration was used. Obtained AUC and PEAK values in the presence of compound were normalized to control values in the absence of compound. Using Origin (OridinLab), IC50 was derived from data fit to Hill equation: Icompound/control=(100−A)/(1+([compound]/IC50)nH)+A, where IC50 is the concentration at which current inhibition is half-maximal, [compound] is the applied compound concentration, A is the fraction of current that is not blocked and nH is the Hill coefficient.

Compound | IC50 [1] [µM] | IC50 [2] [µM]
CNC(=O)C[C@@H]1C[C@H](c2c(O)ccc(Cl)c2Cl)CCN1 (single isomer, unassigned) [Compound 14] | < 1 | > 30
CNC(=O)C[C@H]1C[C@@H](c2c(O)ccc(Cl)c2Cl)CCN1 (single isomer, unassigned) [Compound 30] | < 1 | > 30
O=C(C[C@@H]1C[C@H](c2c(O)ccc(Cl)c2Cl)CCN1)N1CCOCC1 (single isomer, unassigned) [Compound 32] | < 1 | > 30
Oc1cc(Cl)c(Cl)cc1C1CCNC1 (single isomer, unassigned) [Compound 38, 4,5-dichloro-2-(pyrrolidin-3-yl)phenol] | < 1 | < 30
NC(=O)[C@H]1CNCC[C@H]1c1cc(Cl)c(Cl)cc1O (single isomer, unassigned) [Compound 42] | < 1 | > 30
NC(=O)[C@@H]1C[C@H](c2c(O)cc(Cl)c(Cl)c2Cl)CCN1 (single isomer, unassigned) [Compound 63] | < 1 | < 30
NC(=O)[C@H]1C[C@@H](c2c(O)cc(Cl)c(Cl)c2Cl)CCN1 (single isomer, unassigned) [Compound 65] | < 1 | < 30
O=C(C[C@H]1CC(c2c(O)ccc(Cl)c2Cl)CCN1)N1CCOCC1 (single isomer, unassigned) [Compound 67] | < 1 | > 30
Oc1cc(Cl)c(Cl)cc1N1CCCNCC1 [Compound 37, 4,5-dichloro-2-(1,4-diazepan-1-yl)phenol] | < 10 | –
Oc1cc(C(F)F)c(Cl)cc1C1CCNCC1 [Compound 41, 4-chloro-5-(difluoromethyl)-2-(piperidin-4-yl)phenol] | < 10 | –
Oc1cc(Cl)c(Cl)c(Cl)c1C1=CCNCC1 [Compound 46, 3,4,5-trichloro-2-(1,2,3,6-tetrahydropyridin-4-yl)phenol] | < 10 | –
Oc1cc(Cl)c(Cl)cc1C1CCNCC1n1ccnn1 (stereo not drawn) [Compound 62, 4,5-dichloro-2-[3-(1H-1,2,3-triazol-1-yl)piperidin-4-yl]phenol] | < 10 | –
Oc1cccc(Cl)c1C1CCNCC1 [Compound 66, 3-chloro-2-(piperidin-4-yl)phenol] | < 10 | –
Oc1ccc(F)c(Cl)c1C1CCNCC1 [Compound 68, 3-chloro-4-fluoro-2-(piperidin-4-yl)phenol] | < 10 | –
Oc1ccc(C2CC2)c(Cl)c1C1CCNCC1 [Compound 69, 3-chloro-4-cyclopropyl-2-(piperidin-4-yl)phenol] | < 30 | –
Cc1ccc(O)c(C2CCNCC2)c1Cl [Compound 71, 3-chloro-4-methyl-2-(piperidin-4-yl)phenol] | < 30 | –
Oc1ccc(Br)c(Cl)c1C1CCNCC1 [Compound 81, 4-bromo-3-chloro-2-(piperidin-4-yl)phenol] | < 1 | –

Continued, in another order:

IC50 [1] [µM] | Compound | IC50 [2] [µM]
< 1 | NC[C@H]1C[C@@H](c2c(O)ccc(Cl)c2Cl)CCN1 (relative stereo) [Compound 74, (2R,4S)-rel-2-(aminomethyl)piperidin-4-yl]-3,4-dichlorophenol] | > 30
< 1 | NC(=O)[C@H]1C[C@@H](c2cc(Cl)c(Cl)cc2O)CCN1 (relative stereo) [Compound 85, (2R,4S)-rel-4-(4,5-dichloro-2-hydroxyphenyl)piperidine-2-carboxamide] | > 30
< 1 | O=S(=O)(NC[C@H]1C[C@@H](c2c(O)ccc(Cl)c2Cl)CCN1)C1CC1 (relative stereo) [Compound 97, N-(2R,4S)-rel-[[4-(2,3-dichloro-6-hydroxyphenyl)piperidin-2-yl]methyl]cyclopropanesulfonamide] | > 30
< 1 | NC(=O)C[C@H]1C[C@@H](c2c(O)ccc(Cl)c2Cl)CCN1 (relative stereo) [Compound 108, 2-[(2R,4S)-rel-4-(2,3-dichloro-6-hydroxyphenyl)piperidin-2-yl]acetamide] | > 30
< 1 | CS(=O)(=O)NC[C@H]1C[C@@H](c2c(O)ccc(Cl)c2Cl)CCN1 (relative stereo) [Compound 110, (2R,4S)-rel-N-[[4-(2,3-dichloro-6-hydroxyphenyl)piperidin-2-yl]methyl]methanesulfonamide] | > 30
< 1 | O=C(C[C@H]1C[C@@H](c2c(O)ccc(Cl)c2Cl)CCN1)NC1CCC1 (relative stereo) [Compound 111, N-cyclobutyl-(2R,4S)-rel-2-[4-(2,3-dichloro-6-hydroxyphenyl)piperidin-2-yl]acetamide] | < 30
< 1 | O=C(C[C@H]1C[C@@H](c2c(O)ccc(Cl)c2Cl)CCN1)N1CCOCC1 (relative stereo) [Compound 113, 2-[4-(2,3-dichloro-6-hydroxyphenyl)piperidin-2-yl]-1-(morpholin-4-yl)ethan-1-one] | > 30
< 1 | Cn1cc(NC(=O)C[C@H]2C[C@@H](c3c(O)ccc(Cl)c3Cl)CCN2)cn1 (relative stereo) [Compound 114, (2R,4S)-rel-2-[4-(2,3-dichloro-6-hydroxyphenyl)piperidin-2-yl]-N-(1-methyl-1H-pyrazol-4-yl)acetamide] | > 30
< 1 | CNC(=O)C[C@H]1C[C@@H](c2c(O)ccc(Cl)c2Cl)CCN1 (relative stereo) [Compound 115, 2-[4-(2,3-dichloro-6-hydroxyphenyl)piperidin-2-yl]-N-methylacetamide] | > 30
< 1 | NC(=O)[C@H]1C[C@@H](c2c(O)ccc(Cl)c2Cl)CCN1 (single isomer, unassigned) [Compound 70] | > 30
< 10 | O=C(C1CC(c2c(O)ccc(Cl)c2Cl)CCN1)N1CCNCC1 (stereo not drawn) [Compound 75, 3,4-dichloro-2-[2-(piperazine-1-carbonyl)piperidin-4-yl]phenol] | –
< 10 | CC1(C(N)=O)CC(c2c(O)ccc(Cl)c2Cl)CCN1 (stereo not drawn) [Compound 83, 4-(2,3-dichloro-6-hydroxyphenyl)-2-methylpiperidine-2-carboxamide] | –
< 10 | O=C(O)C1CC(c2c(O)ccc(Cl)c2Cl)CCN1 (stereo not drawn) [Compound 84, 4-(2,3-dichloro-6-hydroxyphenyl)piperidine-2-carboxylic acid] | –
< 10 | O=C1NCCC12CC(c1c(O)ccc(Cl)c1Cl)CCN2 (stereo not drawn) [Compound 87, 9-(2,3-dichloro-6-hydroxyphenyl)-2,6-diazaspiro[4.5]decan-1-one] | –
< 10 | NC(=O)C1CCCN(c2c(O)ccc(Cl)c2Cl)C1 (stereo not drawn) [Compound 88, 1-(2,3-dichloro-6-hydroxyphenyl)piperidine-3-carboxamide] | –
< 10 | NC(=O)[C@H]1CN(c2c(O)ccc(Cl)c2Cl)CCN1 [Compound 90, (2R)-4-(2,3-dichloro-6-hydroxyphenyl)piperazine-2-carboxamide] | –
< 10 | NC(=O)[C@@H]1CN(c2c(O)ccc(Cl)c2Cl)CCN1 [Compound 92] | –
< 10 | O=S(=O)(C1CCNC1)N1CCC(c2c(O)cc(Cl)c(Cl)c2Cl)CC1 (stereo not drawn) [Compound 95, 3,4,5-trichloro-2-[1-(pyrrolidine-3-sulfonyl)piperidin-4-yl]phenol] | –
< 1 | NC(=O)[C@H]1CN(c2c(O)cc(Cl)c(Cl)c2Cl)CCN1 [Compound 96, (2R)-4-(2,3,4-trichloro-6-hydroxyphenyl)piperazine-2-carboxamide] | –
